Data reported in US6875420B1, “Method of ultrasound imaging” (Amersham Health AS, priority 1991, dated 2005).
Read-outs that look alike come from different tables or passages of the source.

Columns and labels:
[1] = cited from earlier work; for DENSITY: gas density; for SOLUBILITY: in water, fluorocarbons estimated by extrapolation relative to perfluoro-n-pentane; for boiling point: standard pressure conditions
[2] = Physical properties of gases: density, solubility in water, diffusivity, molar volume, boiling point; assay type: physicochemical; conditions: (*) estimated from the known density of homologous fluorocarbons
Description: Different methods for determining or estimating values for the individual parameters of density, diffusivity, and solubility may be needed depending on the chemical structure of the gas. Values for these parameters may or may not be available from known scientific literature sources such as the Gas Encyclopedia or the tabulations published by the American Chemical Society. Values for the density of most gases are readily available from sources such as the Handbook of Chemistry and Physics. […] Additionally, the solubility in water and molar volume of some gases has been measured with accuracy. In many cases however, calculations for the numerical values for molar volume and solubility may need to be calculated or estimated to provide the data used to determine the value of the Q coefficient for an individual gas by the method described above.
To determine the Q value for several gases, the solubility, molar volume and density of the individual gases are determined and the values are substituted into Equations (7) or (8) above.
This method for estimating the gas solubility of fluorocarbons uses extrapolation of the experimental data of Kabalnov AS, Makarov KN, and Scherbakova OV. […] For a homologous series of non-branched fluorocarbons, the gas solubility may be estimated by increasing or reducing this value by a factor of about 8.0 for each increase or reduction in the number of additional —CF2— groups present in the molecule.
The molar volume of a gas can be estimated by identifying the number and type of atoms that make up the molecule of gas in question. By determining the number and type of atoms present in the molecule and how the individual atoms are bound to each other, known values may be applied for the molecular volume of the individual atoms. By considering the contribution of each individual atom and its frequency of occurrence, one may calculate the total molar volume for a particular gas molecule.

[3] = Persistence of microbubbles in water at 37° C. observed by ultrasound scan; assay type: physicochemical
Description: The relationship between a calculated Q-value for a given gas and the persistence of microbubbles of that gas was studied to determine what Q-value would be a lower limit for utility as an ultrasound contrast agent. […] Five mL of a 20% sorbitol solution was taken up in a 10 mL syringe connected to a three way stopcock. A 10 mL syringe, containing 2 cubic centimeters of the subject gas (or low boiling liquid, as pertinent) was attached to the syringe containing the sorbitol solution. The sorbitol and gas or liquid are rapidly mixed 25-times to create a suspension of microbubbles or dispersed liquid and then rapidly added to the water. […] Ultrasound scans before, during and after the addition were made with a Hewlett-Packard Model Sonos 500 ultrasound scanner operating at 5 MHz. The time during which the microbubbles could be observed was recorded. […] The experimental Q-values were obtained by dividing the measured persistence of a given gas by the measured persistence for air.

[4] = about 100 micron microbubbles, 20% sorbitol, added to water at 37° C., 5 MHz ultrasound

| Compound | DENSITY [1] [kg/m3] | SOLUBILITY [1] | other results |
| --- | --- | --- | --- |
| FS(F)(F)(F)(F)F [Sulfur Hexafluoride] | 5.48 |  |  |
| FC(F)(F)C#CC(F)(F)F [Hexafluoro-2-butyne] |  |  | DENSITY [2]: 9 (*) kg/m3 |
| Hexafluoropropane | 10.3 |  |  |
| [Ar] [Argon] | 1.78 |  |  |
| O=C=O [Carbon Dioxide] | 1.98 | 33000 µmol/L |  |
| FC(F)=C(F)C(F)=C(F)F [Hexafluorobuta-1,3-diene] |  |  | DENSITY [2]: 9 (*) kg/m3 |
| CCCC [n-Butane] | 2.05 | 6696 µmol/L | PERSISTENCE of microbubbles [3]: 1.5 min (2.6) |
| CC [Ethane] | 1.05 |  |  |
| CCCCC [Pentane] |  | 1674 µmol/L | PERSISTENCE of microbubbles [3, 4]: 20.6 min |
| FC(F)(F)C(F)(F)C(F)(F)F [Octafluoropropane] | 10.3 | 260 µmol/L |  |
| CCC [Propane] | 2.02 |  | PERSISTENCE of microbubbles [3, 4]: 3.2 min |
| FC(F)(F)C(F)(F)C(F)(F)C(F)(F)C(F)(F)C(F)(F)F [Perfluorohexane, reference compound] |  |  | boiling point [1]: 59-60 degrees Centigrade |
| FC1(F)C(F)(F)C(F)(F)C1(F)F [Octafluorocyclobutane] | 9.97 | 220 µmol/L |  |
| [Ne] [Neon] | 0.90 | 434 µmol/L |  |
| [He] [Helium] | 0.18 | 388 µmol/L | PERSISTENCE of microbubbles [3, 4]: 2.0 min |
| CCOCC [Ethyl ether] | 2.55 | 977,058 micromoles/liter | PERSISTENCE of microbubbles [3, 4]: 0.1 min |
| FC(=C(F)C(F)(F)F)C(F)(F)F [Octafluoro-2-butene] |  |  | DENSITY [2]: 10 (*) kg/m3 |
| FC(F)(F)C(F)(F)C(F)(F)C(F)(F)F [Decafluorobutane] | 11.21 | 32 µmol/L |  |
| FC(F)(F)C(F)(F)C(F)(F)C(F)(F)C(F)(F)F [Dodecafluoropentane] | 12.86 |  | PERSISTENCE of microbubbles [3, 4]: > 5760 min; water solubility [1]: 4.0×10^−6 moles per liter; boiling point [1]: 29.5 degrees Centigrade |
| [Xe] [Xenon] | 5.90 |  |  |
| [Kr] [Krypton] | 3.8 |  |  |
| FC(F)(F)C(F)(F)F [Hexafluoroethane] | 8.86 |  |  |
